Experimental data: US20240166693A1, “METHODS AND COMPOUNDS FOR MODULATING MYOTONIC DYSTROPY 1” (Design Therapeutics, Inc., priority 2020, published 2024)

Each molecule was assayed on Myotonic Dystrophy 1 affected patient fibroblasts (Coriell GM04602; 1600 CTG repeats) (assay: DM1 foci reduction assay (CAG10-Cy3 FISH, average foci per nucleus)). Settings: Homo sapiens, Fibroblast, 48 h, read-out: Foci Reduction in Fibroblast EC50, 48 h (nM).
Format: cell-based
Summary of the method: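 DM1 patient fibroblasts (GM04602, 1600 CTG) treated 48 h at 37 °C, 8-point 1:3 dilutions from 3 μM top dose; wild-type GM07492 as control. PFA-fixed, ethanol-permeabilized cells hybridized overnight with 5 nM CAG10-Cy3 probe, DAPI-counterstained, imaged at 20× in 4 fields; average foci per nucleus per well.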
`CCN(CC)CCCC[C@H](NC(=O)[C@H](CC(C)C)NC(=O)[C@H](C)NC(=O)[C@H](Cc1ccccc1)NC(=O)c1ccc(C(C)(C)C)cc1)C(=O)N[C@@H](CO)C(=O)NCCOCCOCCOCCOCCOCCNC(=O)c1cc(NC(=O)c2nc(NC(=O)c3cc(NC(=O)CCCNC(=O)c4nc(NC(=O)CCNC(=O)c5cc(NC(=O)c6nccn6C)cn5C)cn4C)cn3C)cn2C)cn1C` [Compound 115] showed an EC50 greater than 500 nM.
With `CCN(CC)CCCC[C@H](NC(=O)[C@H](CC(C)C)NC(=O)[C@H](C)NC(=O)[C@H](Cc1ccccc1)NC(=O)c1ccccc1C)C(=O)N[C@@H](CO)C(=O)NCCOCCOCCOCCOCCOCCNC(=O)c1cc(NC(=O)c2cc(NC(=O)c3nc(NC(=O)c4cc(NC(=O)[C@@H](N)CCNC(=O)c5nc(NC(=O)CCNC(=O)c6cc(NC(=O)c7nccn7C)cn6C)cn5C)cn4C)cn3C)cn2C)cn1C` [Compound 89] the EC50 was greater than 500 nM.
For `CCN(CC)CCCC[C@H](NC(=O)[C@H](CC(C)C)NC(=O)[C@H](C)NC(=O)[C@H](Cc1ccccc1)NC(=O)c1ccc(C(C)(C)C)cc1)C(=O)N[C@@H](CO)C(=O)NCCOCCOCCOCCOCCOCCNC(=O)c1nc(NC(=O)CCNC(=O)c2cc(NC(=O)c3nc(NC(=O)[C@H](N)CCNC(=O)c4cc(NC(=O)c5nc(NC(=O)c6cc(NC(=O)c7cccn7C)cn6C)cn5C)cn4C)cn3C)cn2C)cn1C` [Compound 108], the EC50 was 100 to 500 nM.
With `CCN(CC)CCCC[C@H](NC(=O)[C@H](CC(C)C)NC(=O)[C@H](C)NC(=O)[C@H](Cc1ccccc1)NC(=O)c1ccc(C(C)(C)C)cc1)C(=O)N[C@@H](CO)C(=O)NCCOCCOCCOCCOCCOCCN(CCCCN=[N+]=[N-])C(=O)CCNC(=O)c1nc(NC(=O)c2cc(NC(=O)CCNC(=O)c3nc(NC(=O)CCCNC(=O)c4cc(NC(=O)c5nc(NC(=O)CCNC(=O)c6cc(NC(=O)c7nccn7C)cn6C)cn5C)cn4C)cn3C)cn2C)cn1C` [Compound 189] the EC50 was less than 100 nM.
`CCN(CC)CCCC[C@H](NC(=O)[C@H](CC(C)C)NC(=O)[C@H](C)NC(=O)[C@H](Cc1ccccc1)NC(=O)c1ccc(C(C)(C)C)cc1)C(=O)N[C@@H](CO)C(=O)NCCOCCOCCOCCOCCN1CCN(C2CCN(C(=O)CCNC(=O)c3nc(NC(=O)c4cc(NC(=O)CCNC(=O)c5nc(NC(=O)CCCNC(=O)c6cc(NC(=O)c7nc(NC(=O)CCNC(=O)c8cc(NC(=O)c9nccn9C)cn8C)cn7C)cn6C)cn5C)cn4C)cn3C)CC2)CC1` [Compound 186] showed an EC50 greater than 500 nM.
With `CCN(CC)CCCC[C@H](NC(=O)[C@H](CC(C)C)NC(=O)[C@H](C)NC(=O)[C@H](Cc1ccccc1)NC(=O)c1ccc(C(C)(C)C)cc1)C(=O)N[C@@H](CO)C(=O)NCCOCCOCCOCCOCCOCCNC(=O)c1nc(NC(=O)c2cc(NC(=O)c3cc(NC(=O)c4nc(NC(=O)CCCNC(=O)c5cc(NC(=O)c6nc(NC(=O)CCNC(=O)c7cc(NC(=O)c8nccn8C)cn7C)cn6C)cn5C)cn4C)cn3C)cn2C)cn1C` [Compound 105] the EC50 was greater than 500 nM.
Molecule `CCN(CC)CCCC[C@H](NC(=O)[C@H](CC(C)C)NC(=O)[C@H](C)NC(=O)[C@H](Cc1ccccc1)NC(=O)c1ccc(C(C)(C)C)cc1)C(=O)N[C@@H](CO)C(=O)NCCOCCOCCNC(=O)CCNC(=O)c1nc(NC(=O)c2cc(NC(=O)CCNC(=O)c3[nH]c(NC(=O)CCCNC(=O)c4cc(NC(=O)c5nc(NC(=O)CCNC(=O)c6cc(NC(=O)c7nccn7C)cn6C)cn5C)cn4C)cc3C)cn2C)cn1C` [Compound 64] has an EC50 of less than 100 nM.
`CCN(CC)CCCC[C@H](NC(=O)CNC(=O)CNC(=O)CNC(=O)c1ccc(C(C)(C)C)cc1)C(=O)N[C@@H](CO)C(=O)NCCOCCOCCOCCOCCOCCNC(=O)CCNC(=O)c1nc(NC(=O)c2cc(NC(=O)CCNC(=O)c3nc(NC(=O)CCCNC(=O)c4cc(NC(=O)c5nc(NC(=O)CCNC(=O)c6cc(NC(=O)c7nccn7C)cn6C)cn5C)cn4C)cn3C)cn2C)cn1C` [Compound 99] gave an EC50 of less than 100 nM.
Work on `CCN(CC)CCCC[C@H](NC(=O)[C@H](CC(C)C)NC(=O)[C@H](C)NC(=O)[C@H](Cc1ccccc1)NC(=O)c1ccc(C(C)(C)C)cc1)C(=O)N[C@@H](CO)C(=O)Nc1ccc(C#CC#CCNC(=O)CCNC(=O)c2nc(NC(=O)c3cc(NC(=O)CCNC(=O)c4nc(NC(=O)CCCNC(=O)c5cc(NC(=O)c6nc(NC(=O)CCNC(=O)c7cc(NC(=O)c8nccn8C)cn7C)cn6C)cn5C)cn4C)cn3C)cn2C)cc1` [Compound 96] yielded an EC50 of less than 100 nM.
For `CCN(CC)CCCC[C@H](NC(=O)COCCOCCNC(=O)c1ccc(C(C)(C)C)cc1)C(=O)N[C@@H](CO)C(=O)NCCOCCOCCOCCOCCOCCNC(=O)CCNC(=O)c1nc(NC(=O)c2cc(NC(=O)CCNC(=O)c3nc(NC(=O)CCCNC(=O)c4cc(NC(=O)c5nc(NC(=O)CCNC(=O)c6cc(NC(=O)c7nccn7C)cn6C)cn5C)cn4C)cn3C)cn2C)cn1C` [Compound 66], the EC50 was 100 to 500 nM.
Work on `CC(C)C[C@H](NC(=O)[C@H](C)NC(=O)[C@H](Cc1ccccc1)NC(=O)c1ccc(C(C)(C)C)cc1)C(=O)N[C@@H](CCCCN(C)C1CC2CCC1C2)C(=O)N[C@@H](CO)C(=O)NCCOCCOCCNC(=O)CCNC(=O)c1nc(NC(=O)c2cc(NC(=O)CCNC(=O)c3nc(NC(=O)CCCNC(=O)c4cc(NC(=O)c5nc(NC(=O)CCNC(=O)c6cc(NC(=O)c7nccn7C)cn6C)cn5C)cn4C)cn3C)cn2C)cn1C` (some centres unmarked) [Compound 77] yielded an EC50 of less than 100 nM.
`CCN(CC)CCCC[C@H](NC(=O)[C@H](CC(C)C)NC(=O)[C@H](C)NC(=O)[C@H](Cc1ccccc1)NC(=O)c1ccc(C(C)(C)C)cc1)C(=O)N[C@@H](CO)C(=O)NCCOCCOCCOCCOCCOCCNC(=O)c1cc(NC(=O)c2cc(NC(=O)c3nc(NC(=O)c4cc(NC(=O)CCCNC(=O)c5nc(NC(=O)CCNC(=O)c6cc(NC(=O)c7nccn7C)cn6C)cn5C)cn4C)cn3C)cn2C)cn1C` [Compound 113] gave an EC50 greater than 500 nM.
In the case of `CCN(CC)CCCC[C@H](NC(=O)[C@H](CC(C)C)NC(=O)[C@H](C)NC(=O)[C@H](Cc1ccccc1)NC(=O)c1ccc(C(C)(C)C)cc1)C(=O)N[C@@H](CO)C(=O)NCCOCCOCCNC(=O)c1cc(NC(=O)c2nc(NC(=O)c3cc(NC(=O)[C@@H](N)CCNC(=O)c4nc(NC(=O)c5cc(NC(=O)c6cc(NC(=O)c7nccn7C)cn6C)cn5C)cn4C)cn3C)cn2C)cn1C` [Compound 79], the EC50 is reported as greater than 500 nM.
Work on `CCN(CC)CCCC[C@H](NC(=O)[C@H](CC(C)C)NC(=O)[C@H](C)NC(=O)[C@H](Cc1ccccc1)NC(=O)c1ccc(C(C)(C)C)cc1)C(=O)N[C@@H](CO)C(=O)NCCOCCOCCOCCOCCOCCNC(=O)c1cc(NC(=O)c2nc(NC(=O)c3cc(NC(=O)[C@H](N)CCNC(=O)c4nc(NC(=O)CCNC(=O)c5cc(NC(=O)c6nccn6C)cn5C)cn4C)cn3C)cn2C)cn1C` [Compound 116] yielded an EC50 greater than 500 nM.

Same assay, conditions: Homo sapiens, Fibroblast; DM1 fibroblasts, 48 h treatment, 8-point dose response, 3 μM top dose; read-out: Foci Reduction in Fibroblast EC50, 48 h
`Cc1nc(CCC(=O)NCCOCCOCCOCCOCCOCCOCCOCCOCCOCCOCCOCCOCCOCCOCCOCCNC(=O)CCNC(=O)c2nc(NC(=O)c3cc(NC(=O)CCNC(=O)c4nc(NC(=O)CCCNC(=O)c5cc(NC(=O)c6nc(NC(=O)CCNC(=O)c7cc(NC(=O)c8nccn8C)cn7C)cn6C)cn5C)cn4C)cn3C)cn2C)ccc1-c1cnc(NCc2c(F)ccc3c2CCO3)n2cnnc12` [Compound 63] showed an EC50 greater than 500 nM.
In the case of `CC(=O)c1cc(-c2ccccc2S(C)(=O)=O)c2cc(OCCOCCOCCNC(=O)CCNC(=O)c3nc(NC(=O)c4cc(NC(=O)CCNC(=O)c5nc(NC(=O)CCCNC(=O)c6cc(NC(=O)c7nc(NC(=O)CCNC(=O)c8cc(NC(=O)c9nccn9C)cn8C)cn7C)cn6C)cn5C)cn4C)cn3C)ccn12` [Compound 168], the EC50 is reported as greater than 500 nM.
Work on `COc1cc2nc(N3CCCCC3)nc(NC3CCN(CCOCCOCCOCCOCCOCCNC(=O)CCNC(=O)c4nc(NC(=O)c5cc(NC(=O)CCNC(=O)c6nc(NC(=O)CCCNC(=O)c7cc(NC(=O)c8nc(NC(=O)CCNC(=O)c9cc(NC(=O)c%10nccn%10C)cn9C)cn8C)cn7C)cn6C)cn5C)cn4C)CC3)c2cc1OC` [Compound 192] yielded an EC50 greater than 500 nM.
In the case of `Cn1cc(NC(=O)c2cc(NC(=O)c3nc(NC(=O)c4cc(NC(=O)[C@@H](N)CCNC(=O)c5nc(NC(=O)CCNC(=O)c6cc(NC(=O)c7nccn7C)cn6C)cn5C)cn4C)cn3C)cn2C)cc1C(=O)NCCOCCOCCOCCOCCOCCN1CCC(C(=O)Nc2ncc(SCc3ncc(C(C)(C)C)o3)s2)CC1` [Compound 120], the EC50 is reported as greater than 500 nM.
In the case of `Cn1cc(NC(=O)c2nc(NC(=O)CCNC(=O)c3cc(NC(=O)c4nc(NC(=O)CCNC(=O)c5cccn5C)cn4C)cn3C)cn2C)cc1C(=O)NCCC(=O)Nc1cn(C)c(C(=O)NCCOCCOCCOCCOCCOCCOCCOCCOCCOCCOCCN2CCC(C(=O)Nc3ncc(SCc4ncc(C(C)(C)C)o4)s3)CC2)n1` [Compound 2], the EC50 is reported as less than 100 nM.
`CCN(CCN(C)CCOCCOCCOCCOCCOCCNC(=O)CCNC(=O)c1nc(NC(=O)c2cc(NC(=O)CCNC(=O)c3nc(NC(=O)CCCNC(=O)c4cc(NC(=O)c5nc(NC(=O)CCNC(=O)c6cc(NC(=O)c7nccn7C)cn6C)cn5C)cn4C)cn3C)cn2C)cn1C)C(=O)CNCc1cc(C(N)=O)ccn1` [Compound 163] gave an EC50 greater than 500 nM.
In the case of `CCN(c1cc(-c2ccc(CN3CCN(CCCCCCCNC(=O)CCNC(=O)c4nc(NC(=O)c5cc(NC(=O)CCNC(=O)c6nc(NC(=O)CCCNC(=O)c7cc(NC(=O)c8nc(NC(=O)CCNC(=O)c9cc(NC(=O)c%10nccn%10C)cn9C)cn8C)cn7C)cn6C)cn5C)cn4C)CC3)cc2)cc(C(=O)NCc2c(C)cc(C)[nH]c2=O)c1C)C1CCOCC1` [Compound 164], the EC50 is reported as greater than 500 nM.
`COc1c(OCCOCCOCCOCCOCCOCCNC(=O)CCNC(=O)c2nc(NC(=O)c3cc(NC(=O)CCNC(=O)c4nc(NC(=O)CCCNC(=O)c5cc(NC(=O)c6nc(NC(=O)CCNC(=O)c7cc(NC(=O)c8nccn8C)cn7C)cn6C)cn5C)cn4C)cn3C)cn2C)cccc1C(=O)N1CCN(C(=O)COc2cc(C)c(NC(N)=O)c(C)c2)CC1` [Compound 93] showed an EC50 greater than 500 nM.
For `Cn1cc(NC(=O)c2nc(NC(=O)CCNC(=O)c3cc(NC(=O)c4nccn4C)cn3C)cn2C)cc1C(=O)NCCCC(=O)Nc1cn(C)c(C(=O)NCCC(=O)Nc2cc(C(=O)Nc3cn(C)c(C(=O)NCCC(=O)NCCOCCOCCn4cc(CCCCN(Cc5ccc(C(=O)NO)cc5)C(=O)Nc5ccccc5)nn4)n3)n(C)c2)n1` [Compound 125], the EC50 was greater than 500 nM.
